28 molecules from patent US10189838B2, “Aza-oxo-indoles for the treatment and prophylaxis of respiratory syncytial virus infection” (Hoffmann-La Roche Inc., priority 2013, dated 2019) can be followed below.

The test system of this experiment is RSV Long strain. In words: Viral cytopathic effect (CPE) assay, RSV Long strain. The format is cell-based, Respiratory Syncytial Virus. To be noted: human respiratory syncytial virus, 144 h, cell viability after 6 days (Cell Counting kit-8). The protocol:
EC50: the concentration of a compound where 50% of its maximal protection effect against viral induced CPE is observed
LongStrain: an A subtype RSV strain obtained from ATCC with catalog number VR-26
To measure anti-RSV activity of compounds, 96-well plates are seeded with 6×10^3 cells per well in Dulbecco's modified Eagle's medium (DMEM) containing 10% fetal bovine serum (FBS). Cells are infected the next day with sufficient RSV Long strain (ATCC) to produce an approximately 80-90% cytopathic effect after 6 days, in the presence of serial half-log diluted compound in a total volume of […] per well. The viability of cells is assessed after 6 days using Cell Counting kit-8 (Dojindo Molecular Technologies). The absorbance at 450 nm and referenced at 630 nm is measured to determine 50% effective concentration (EC50)

Molecule `CN(C(=O)CCn1c(CN2C(=O)C3(CC3)c3ccncc32)cc2cc(Cl)ccc21)S(=O)(=O)C1CC1` [Example 19-2, 3-{5-Chloro-2-[(2′-oxospiro[cyclopropane-1,3′-pyrrolo[2,3-c]pyridin]-1′(2′H)-yl)methyl]-1H-indol-1-yl}-N-(cyclopropylsulfonyl)-N-methylpropanamide] had an EC50 of 59 nM. To `O=C1N(Cc2cc3cc(Cl)ccc3n2CCCS(=O)(=O)N2C[C@H]3C[C@@H]2CN3)c2cnccc2C12CC2` [Example 24-3, 1′-[(5-Chloro-1-{3-[(1R,4R)-2,5-diazabicyclo[2.2.1]hept-2-ylsulfonyl]propyl}-1H-indol-2-yl)methyl]spiro[cyclopropane-1,3′-pyrrolo[2,3-c]pyridin]-2′(1′H)-one] belongs 19 nM; to `CC(=O)NS(=O)(=O)CCCn1c(CN2C(=O)C3(CC3)c3ccncc32)cc2cc(Cl)cnc21` [Example 26-2, N-[(3-{5-Chloro-2-[(2′-oxospiro[cyclopropane-1,3′-pyrrolo[2,3-c]pyridin]-1′(2′H)-yl)methyl]-1H-pyrrolo[2,3-b]pyridin-1-yl}propyl)sulfonyl]acetamide], 1920 nM.

`CS(=O)(=O)CCc1c(CN2C(=O)C3(CC3)c3ccncc32)[nH]c2cc(Cl)ccc12` [Example 32-2, 1′-({6-Chloro-3-[2-(methylsulfonyl)ethyl]-1H-indol-2-yl}methyl)spiro[cyclopropane-1,3′-pyrrolo[2,3-c]pyridin]-2′(1′H)-one] returned an EC50 of 5 nM. With `NC(=O)CCCn1c(CN2C(=O)C3(CC3)c3ccncc32)cc2cc(Cl)ccc21` [Example 18-3, 4-{5-Chloro-2-[(2′-oxospiro[cyclopropane-1,3′-pyrrolo[2,3-c]pyridin]-1′(2′H)-yl)methyl]-1H-indol-1-yl}butanamide], the EC50 is 11 nM.

For `O=C1N(Cc2cc3cc(Cl)ccc3n2CCCS(=O)(=O)N2CCNCC2)c2cnccc2C12CC2` [Example 24-2, 1′-({5-Chloro-1-[3-(piperazin-1-ylsulfonyl)propyl]-1H-indol-2-yl}methyl)spiro[cyclopropane-1,3′-pyrrolo[2,3-c]pyridin]-2′(1′H)-one], the EC50 is 15 nM.

On to `CS(=O)(=O)CCn1c(CN2C(=O)C3(CCCC3)c3ccncc32)cc2cc(Cl)ccc21` [Example 3-2, 1′-({5-Chloro-1-[2-(methylsulfonyl)ethyl]-1H-indol-2-yl}methyl)spiro[cyclopentane-1,3′-pyrrolo[2,3-c]pyridin]-2′(1′H)-one], for which a half-maximal effect (EC50) was put at 290 nM. With `O=C1N(Cc2cc3nc(Cl)ccc3n2CCCS(=O)(=O)C2CC2)c2cnccc2C12CC2` [Example 4-6, 1′-({5-Chloro-1-[3-(cyclopropylsulfonyl)propyl]-1H-pyrrolo[3,2-b]pyridin-2-yl}methyl)spiro[cyclopropane-1,3′-pyrrolo[2,3-c]pyridin]-2′(1′H)-one], the EC50 was determined as 29 nM. `CN(C)S(=O)(=O)CCCn1c(CN2C(=O)C3(CC3)c3ccncc32)cc2cc(Cl)cnc21` [Example 7-2, 3-{5-Chloro-2-[(2′-oxospiro[cyclopropane-1,3′-pyrrolo[2,3-c]pyridin]-1′(2′H)-yl)methyl]-1H-pyrrolo[2,3-b]pyridin-1-yl}-N,N-dimethylpropane-1-sulfonamide] returned a concentration giving a half-maximal response (EC50) of 64 nM.

`CS(=O)(=O)CCCCn1c(CN2C(=O)C3(CC3)c3ccncc32)cc2cc(Cl)cnc21` [Example 4-16, 1′-({5-Chloro-1-[4-(methylsulfonyl)butyl]-1H-pyrrolo[2,3-b]pyridin-2-yl}methyl)spiro[cyclopropane-1,3′-pyrrolo[2,3-c]pyridin]-2′(1′H)-one]: the midpoint of the response, the EC50, lay at 54.9 nM. Take `CS(=O)(=O)CCn1c(CN2C(=O)C3(CC3)c3ccncc32)cc2cc(Cl)cc(F)c21` [Example 1-12, 1′-({5-Chloro-7-fluoro-1-[2-(methylsulfonyl)ethyl]-1H-indol-2-yl}methyl)spiro[cyclopropane-1,3′-pyrrolo[2,3-c]pyridin]-2′(1′H)-one]: the midpoint of the response, the EC50, lay at 3.4 nM. The molecule `CS(=O)(=O)CCCCn1c(CN2C(=O)C3(CC3)c3ccncc32)cc2nc(Cl)ccc21` [Example 4-5, 1′-({5-Chloro-1-[4-(methylsulfonyl)butyl]-1H-pyrrolo[3,2-b]pyridin-2-yl}methyl)spiro[cyclopropane-1,3′-pyrrolo[2,3-c]pyridin]-2′(1′H)-one] yielded an EC50 of 22.1 nM. To `CCS(=O)(=O)CCn1c(CN2C(=O)C3(CC3)c3ccncc32)cc2nc(Cl)ccc21` [Example 6, 1′-({5-Chloro-1-[2-(ethylsulfonyl)ethyl]-1H-pyrrolo[3,2-b]pyridin-2-yl}methyl)spiro[cyclopropane-1,3′-pyrrolo[2,3-c]pyridin]-2′(1′H)-one] belongs 131 nM; to `CNS(=O)(=O)CCCn1c(CN2C(=O)C3(CC3)c3ccncc32)cc2cc(Cl)ccc21` [Example 25-2, 3-{5-Chloro-2-[(2′-oxospiro[cyclopropane-1,3′-pyrrolo[2,3-c]pyridin]-1′(2′H)-yl)methyl]-1H-indol-1-yl}-N-methylpropane-1-sulfonamide], 11 nM; to `CS(=O)(=O)CCn1c(CN2C(=O)C3(CC3)c3ccncc32)cc2cc(Br)ccc21` [Example 1-5, 1′-({5-Bromo-1-[2-(methylsulfonyl)ethyl]-1H-indol-2-yl}methyl)spiro[cyclopropane-1,3′-pyrrolo[2,3-c]pyridin]-2′(1′H)-one], 14 nM.

Molecule `COc1ccc2c(c1)cc(CN1C(=O)C3(CC3)c3ccncc31)n2CCS(C)(=O)=O` [Example 1-2, 1′-({5-Methoxy-1-[2-(methylsulfonyl)ethyl]-1H-indol-2-yl}methyl)spiro[cyclopropane-1,3′-pyrrolo[2,3-c]pyridin]-2′(1′H)-one] showed an EC50 of 74 nM. To `CS(=O)(=O)CCn1c(CN2C(=O)C3(CC3)c3cnccc32)cc2cc(Cl)ccc21` [Example 3-1, 1′-({5-Chloro-1-[2-(methylsulfonyl)ethyl]-1H-indol-2-yl}methyl)spiro[cyclopropane-1,3′-pyrrolo[3,2-c]pyridin]-2′(1′H)-one] belongs 201 nM; to `O=C(O)CCn1c(CN2C(=O)C3(CC3)c3ccncc32)cc2cc(Cl)ccc21` [Example 16-1, 3-{5-Chloro-2-[(2′-oxospiro[cyclopropane-1,3′-pyrrolo[2,3-c]pyridin]-1′(2′H)-yl)methyl]-1H-indol-1-yl}propanoic acid], 390 nM; to `CCS(=O)(=O)CCn1c(CN2C(=O)C3(CC3)c3ccncc32)cc2cc(Cl)ccc21` [Example 2-1, 1′-({5-Chloro-1-[2-(ethylsulfonyl)ethyl]-1H-indol-2-yl}methyl)spiro[cyclopropane-1,3′-pyrrolo[2,3-c]pyridin]-2′(1′H)-one], 7.67 nM. As to `CCS(=O)(=O)CCn1c(CN2C(=O)C3(CC3)c3ccncc32)nc2cc(Cl)ccc21` [Example 34-5, 1′-({5-Chloro-1-[2-(ethylsulfonyl)ethyl]-1H-benzimidazol-2-yl}methyl)spiro[cyclopropane-1,3′-pyrrolo[2,3-c]pyridin]-2′(1′H)-one], the EC50 worked out at 13 nM. The molecule `CS(=O)(=O)CCn1c(CN2C(=O)C3(CC3)c3c(F)cccc32)nc2cc(Cl)ccc21` [Example 34-2, 1′-({5-Chloro-1-[2-(methylsulfonyl)ethyl]-1H-benzimidazol-2-yl}methyl)-4′-fluorospiro[cyclopropane-1,3′-indol]-2′(1′H)-one] returned an EC50 of 20 nM. With `CS(=O)(=O)CCn1c(CN2C(=O)C3(CC3)c3ccncc32)cc2ccccc21` [Example 1-1, 1′-({1-[2-(Methylsulfonyl)ethyl]-1H-indol-2-yl}methyl)spiro[cyclopropane-1,3′-pyrrolo[2,3-c]pyridin]-2′(1′H)-one], the EC50 amounted to 220 nM. To `CS(=N)(=O)CCn1c(CN2C(=O)C3(CC3)c3ccncc32)cc2cc(Cl)cnc21` (stereo not shown) [Example 14-4, 1′-({5-Chloro-1-[2-(S-methylsulfonimidoyl)ethyl]-1H-pyrrolo[2,3-b]pyridin-2-yl}methyl)spiro[cyclopropane-1,3′-pyrrolo[2,3-c]pyridin]-2′(1′H)-one] belongs 172 nM.

Turning to `O=C1N(Cc2nc3cc(Cl)cc(F)c3n2CC2COC2)c2cnccc2C12CC2` [Example 38-3, 1′-{[5-Chloro-7-fluoro-1-(oxetan-3-ylmethyl)-1H-benzimidazol-2-yl]methyl}spiro[cyclopropane-1,3′-pyrrolo[2,3-c]pyridin]-2′(1′H)-one], the EC50 came out at 30 nM. To `CS(=O)(=O)CCn1c(CN2C(=O)C3(CC3)c3ccncc32)cc2cc(F)c(F)cc21` [Example 1-11, 1′-({5,6-Difluoro-1-[2-(methylsulfonyl)ethyl]-1H-indol-2-yl}methyl)spiro[cyclopropane-1,3′-pyrrolo[2,3-c]pyridin]-2′(1′H)-one] belongs 935 nM; to `CCc1ccc2c(c1)cc(CN1C(=O)C3(CC3)c3ccncc31)n2CCS(C)(=O)=O` [Example 1-8, 1′-({5-Ethyl-1-[2-(methylsulfonyl)ethyl]-1H-indol-2-yl}methyl)spiro[cyclopropane-1,3′-pyrrolo[2,3-c]pyridin]-2′(1′H)-one], 220 nM; to `CS(=O)(=O)NCCn1c(CN2C(=O)C3(CC3)c3ccncc32)cc2cc(Cl)ccc21` [Example 27-2, N-(2-{5-Chloro-2-[(2′-oxospiro[cyclopropane-1,3′-pyrrolo[2,3-c]pyridin]-1′(2′H)-yl)methyl]-1H-indol-1-yl}ethyl)methanesulfonamide], 11.5 nM. To `CS(=O)(=O)CCn1c(CN2C(=O)C3(CC3)c3ccncc32)cc2nc(Cl)ccc21` [Example 2-9, 1′-({5-Chloro-1-[2-(methylsulfonyl)ethyl]-1H-pyrrolo[3,2-b]pyridin-2-yl}methyl)spiro[cyclopropane-1,3′-pyrrolo[2,3-c]pyridin]-2′(1′H)-one] belongs 63 nM.
